Source: patent US20050215555A1, “Inhibitors of 5-HT2A receptor” (priority 2003, published 2005)

Legend:
[1] = target: T1, 5-HT6 (Homo sapiens, UniProt P50406); assay: Radioligand displacement binding (3H-5-HT), SPA or filter binding; settings: recombinant human receptor
T1 construct: expressed in transfected cells; host or cells: CHO or HEK293
Procedure: (§1) The affinity constants of compounds were determined using recombinant human serotonin receptors stably expressed in fibroblast cell lines (CHO or HEK293), measuring the ability of the compounds to displace radio-labelled tracers using scintillation proximity assays or filter binding assays. For 5-HT1B , 5-HT2B and 5-HT2C receptor binding studies ^3H-LSD was used as radio ligand, for 5-HT2 A and 5-HT6 ^3H-5-HT was used as tracer, while the binding constant to 5-HT1A was determined using ^3H-8-OH-DPAT. The non-selective serotonin receptor antagonist mianserine was used as reference substance.
(§2) The calculation of the Ki values for the inhibitors was performed by use of Activity Base. The Ki value is calculated from IC50 using the Cheng Prushoff equation (with reversible inhibition that follows the Michaelis-Menten equation): […] [Cheng, Y. C.; Prushoff, W. H. Biochem. Pharmacol. 1973, 22, 3099-3108].

[2] = target: T2, 5-HT2A (Homo sapiens, UniProt P28223); assay: FLIPR functional assay (primary screening and IC50 determination), inhibition of 5-HT evoked peak response; type: cell-based; set-up: expressed in transfected cells; host or cells: CHO; settings: CHO cells expressing 5-HT2A, 15 min pre-incubation, Ki calculated from IC50 (Cheng Prushoff)
Procedure: Primary screening and IC50 determination
CHO cells expressing 5-HT2A receptors seeded in 384 well plates are pre-loaded with Fluo-4AM fluorescent dye and then incubated with compound (10 μM for primary screen) for 15 min. Fluorescent intensity is recorded using a Fluorometric imaging plate reader (FLIPR384, Molecular Devices) and inhibition of the peak response evoked by 5-HT (EC70 concentration) is calculated.
IC50 determinations are performed utilizing the same finctional assay as described for primary screening (15 min antagonist compound pre-incubation), applying the compounds in the dose range of 3 nM to 10 μM.
as §2

[3] = target: T3, 5-HT1A (Homo sapiens, UniProt P08908); assay: Radioligand displacement binding (3H-8-OH-DPAT), SPA or filter binding; settings: recombinant human receptor
T3 construct: expressed in transfected cells; host or cells: CHO or HEK293
T3 sequence (P08908 1-422): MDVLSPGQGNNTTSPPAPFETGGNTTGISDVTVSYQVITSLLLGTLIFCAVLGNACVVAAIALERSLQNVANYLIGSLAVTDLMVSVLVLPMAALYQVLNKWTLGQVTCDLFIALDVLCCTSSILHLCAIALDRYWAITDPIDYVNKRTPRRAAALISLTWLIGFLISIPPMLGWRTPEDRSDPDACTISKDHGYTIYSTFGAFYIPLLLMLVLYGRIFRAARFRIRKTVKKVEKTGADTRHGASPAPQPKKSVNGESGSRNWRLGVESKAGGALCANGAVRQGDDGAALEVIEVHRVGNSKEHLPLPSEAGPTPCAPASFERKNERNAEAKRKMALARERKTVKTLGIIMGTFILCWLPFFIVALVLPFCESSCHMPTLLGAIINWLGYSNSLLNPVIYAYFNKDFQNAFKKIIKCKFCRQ
Procedure: as §1, §2

[4] = target: T4, 5-HT2B (Homo sapiens, UniProt P41595); assay: Radioligand displacement binding (3H-LSD), SPA or filter binding; settings: recombinant human receptor
T4 construct: expressed in transfected cells; host or cells: CHO or HEK293
Procedure: as §1, §2

[5] = target: T5, 5-HT1B (Homo sapiens, UniProt P28222); assay: as above; settings: recombinant human receptor
T5 construct: expressed in transfected cells; host or cells: CHO or HEK293
Procedure: as §1, §2

[6] = target: T6, 5-HT2C (Homo sapiens, UniProt P28335); assay: FLIPR based assay, effect on 10 nM 5-HT induced Ca2+-currents; type: cell-based; settings: functional FLIPR assays
T6 sequence (P28335 33-458): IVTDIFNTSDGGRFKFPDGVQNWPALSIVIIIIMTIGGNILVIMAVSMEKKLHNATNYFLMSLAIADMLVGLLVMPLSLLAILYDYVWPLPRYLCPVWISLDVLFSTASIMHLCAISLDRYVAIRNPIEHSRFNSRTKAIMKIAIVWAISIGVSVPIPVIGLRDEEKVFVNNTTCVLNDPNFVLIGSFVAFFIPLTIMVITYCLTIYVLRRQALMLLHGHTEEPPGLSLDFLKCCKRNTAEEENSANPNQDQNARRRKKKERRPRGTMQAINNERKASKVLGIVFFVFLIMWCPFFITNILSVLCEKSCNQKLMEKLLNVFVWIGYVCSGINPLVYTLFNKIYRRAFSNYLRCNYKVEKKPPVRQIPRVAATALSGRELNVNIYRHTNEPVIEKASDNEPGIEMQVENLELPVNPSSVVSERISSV
Procedure: The activity at 5-HT2C receptors was studied in a FLIPR based assay, measuring the effect of compounds on 10 nM 5-HT induced Ca^2+-currents.

[7] = target: T6, 5-HT2C; assay: Radioligand displacement binding (3H-LSD), SPA or filter binding; set-up: expressed in transfected cells; host or cells: CHO or HEK293; settings: recombinant human receptor
Procedure: as §1, §2

[8] = target: T2, 5-HT2A; assay: Radioligand displacement binding (3H-5-HT), SPA or filter binding; set-up: expressed in transfected cells; host or cells: CHO or HEK293
Procedure: as §1, §2

[9] = equilibrium displacement binding, n=3, unit inferred, read-out: Ki values for the 5-HT2A receptor subtype
[10] = recombinant human receptor, 3H-5-HT, read-out: Binding Ki (nM) 5-HT2A

T2 sequence (P28223 whole entry): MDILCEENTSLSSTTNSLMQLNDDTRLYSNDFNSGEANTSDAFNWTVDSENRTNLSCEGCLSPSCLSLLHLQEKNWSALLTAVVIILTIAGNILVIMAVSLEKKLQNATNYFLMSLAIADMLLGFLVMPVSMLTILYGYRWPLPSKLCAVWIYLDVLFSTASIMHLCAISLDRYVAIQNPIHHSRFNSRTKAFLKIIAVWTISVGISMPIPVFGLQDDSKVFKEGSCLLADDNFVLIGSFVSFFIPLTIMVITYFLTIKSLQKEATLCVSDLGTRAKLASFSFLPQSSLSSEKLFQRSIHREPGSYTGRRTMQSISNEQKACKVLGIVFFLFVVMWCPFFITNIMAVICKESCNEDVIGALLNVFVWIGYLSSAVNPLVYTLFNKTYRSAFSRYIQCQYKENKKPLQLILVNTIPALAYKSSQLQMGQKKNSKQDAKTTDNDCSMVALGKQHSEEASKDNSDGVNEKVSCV
T1 sequence (P50406 whole entry): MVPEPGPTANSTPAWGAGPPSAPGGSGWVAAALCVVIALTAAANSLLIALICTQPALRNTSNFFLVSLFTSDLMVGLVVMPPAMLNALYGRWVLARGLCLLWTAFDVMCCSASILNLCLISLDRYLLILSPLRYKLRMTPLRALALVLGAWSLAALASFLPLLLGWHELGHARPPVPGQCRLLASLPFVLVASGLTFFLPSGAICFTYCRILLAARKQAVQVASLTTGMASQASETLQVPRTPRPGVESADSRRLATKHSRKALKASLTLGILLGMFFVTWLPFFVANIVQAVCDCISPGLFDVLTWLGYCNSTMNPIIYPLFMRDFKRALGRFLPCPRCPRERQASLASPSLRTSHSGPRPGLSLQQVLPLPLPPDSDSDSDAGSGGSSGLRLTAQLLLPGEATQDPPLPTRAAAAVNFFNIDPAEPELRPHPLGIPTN
T4 sequence (P41595 whole entry): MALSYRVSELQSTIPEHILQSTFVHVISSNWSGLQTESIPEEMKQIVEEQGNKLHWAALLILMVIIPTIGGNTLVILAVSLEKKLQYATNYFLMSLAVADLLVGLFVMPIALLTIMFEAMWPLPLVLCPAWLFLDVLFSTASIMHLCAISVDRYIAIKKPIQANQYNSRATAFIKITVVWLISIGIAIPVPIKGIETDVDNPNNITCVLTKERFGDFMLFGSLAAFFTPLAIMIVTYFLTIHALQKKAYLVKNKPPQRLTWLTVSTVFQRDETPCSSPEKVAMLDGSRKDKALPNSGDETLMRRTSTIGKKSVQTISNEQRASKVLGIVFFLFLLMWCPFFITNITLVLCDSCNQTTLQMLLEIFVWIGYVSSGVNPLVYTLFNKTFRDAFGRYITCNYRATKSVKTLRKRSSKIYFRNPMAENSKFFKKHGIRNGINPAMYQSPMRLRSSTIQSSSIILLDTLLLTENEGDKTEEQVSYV
T5 sequence (P28222 whole entry): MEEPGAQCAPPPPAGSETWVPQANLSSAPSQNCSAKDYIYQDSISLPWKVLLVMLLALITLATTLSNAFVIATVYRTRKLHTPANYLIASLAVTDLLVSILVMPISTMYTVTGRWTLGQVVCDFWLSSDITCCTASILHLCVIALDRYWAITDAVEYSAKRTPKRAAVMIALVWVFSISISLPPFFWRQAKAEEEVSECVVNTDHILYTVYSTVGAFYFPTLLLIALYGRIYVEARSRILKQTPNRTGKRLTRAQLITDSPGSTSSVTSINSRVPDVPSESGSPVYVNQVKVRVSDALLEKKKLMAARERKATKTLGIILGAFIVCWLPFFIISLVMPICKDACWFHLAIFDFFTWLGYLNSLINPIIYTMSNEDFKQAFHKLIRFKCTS

| SMILES | Ki [1] [nM] | Ki [2] [nM] | Ki [3] [nM] | Ki [4] [nM] | Ki [5] [nM] | selectivity at 5-HT2A versus the 5-HT2C receptor in terms of efficacy [6] | Ki [7] [nM] | Ki [8, 9] [nM] | Ki [8, 10] [nM] |
| --- | --- | --- | --- | --- | --- | --- | --- | --- | --- |
| Cc1ccn2c(C3CCN(CCc4ccccc4)CC3)nc(-c3ccccc3)c2c1 [Example 4, 7-methyl-1-phenyl-3-[1-(2-phenylethyl)piperidin-4-yl]imidazo[1,5-a]pyridine] | > 1000 | 8.2 | > 1000 | 267 | > 1000 | highly selective | > 1000 | 14 | 13.6 |
| c1ccc(CCN2CCC(c3nc(-c4ccccc4)c4ccccn34)CC2)cc1 [Example 2] | > 1000 | 20.6 | > 1000 | 444 | > 1000 | highly selective | > 1000 | 6 | 5.9 |
